Where two headings read alike, the source gives them in different places.
Legend:
[1] = system: Marburg virus MARV; settings: 48 h; inhibitor; read-out: EC50 MARV, Huh7
[2] = system: Ebola virus EBOV; settings: 48 h; inhibitor; read-out: EC50 EBOV, Huh7
[3] = system: SARS-CoV-2-nluc, WA1/2020; settings: inhibitor; read-out: EC50 SARS-CoV-2-nluc, Calu-3
[4] = system: Huh7; settings: human, huh7 cells
[5] = system: Vesicular stomatitis virus rVSV-SARS-CoV-2-S; settings: inhibitor; read-out: EC50 rVSV-SARS-CoV-2-S, Vero
[6] = system: Venezuelan equine encephalitis virus VEEV (TC-83); settings: inhibitor; read-out: EC50 VEEV (TC-83), U-87 MG
[7] = system: DENV2; design: DENV2 replication, plaque assay; settings: inhibitor; read-out: EC50 DENV2, Huh7
[8] = in vitro; settings: human, adult lung organoid monolayer
[9] = system: SARS-CoV-2; design: species or system human adult lung organoid-derived monolayers; SARS-CoV-2 infectious titre in organoid supernatants, plaque assay; settings: inhibitor; read-out: EC50 SARS-CoV-2, ALO
[10] = system: Vesicular stomatitis virus rVSV-SARS-CoV-2-S; settings: inhibitor; read-out: EC50 rVSV-SARS-CoV-2-S, Vero; remark: listed apart in the source

SMILES | EC50 [1] | EC50 [2] | EC50 [3] | CC50 [4] | EC50 [5] | EC50 [6] | EC50 [7] | CC50 [8] | EC50 [9] | EC50 [10]
COc1ccc(-c2cnc3c(C#Cc4cccnc4)snc3c2)cc1OC [RMC-113] | 7.8 µM | 5 µM | 1.45 µM | > 10 µM | 1.8 µM | 1.4 µM | 1.4 µM |  |  | 
Cc1cccc(/C=N/Nc2cc(N3CCOCC3)nc(OCCc3ccccn3)n2)c1 [Apilimod] |  |  |  |  |  |  |  | 9.9 µM | 0.42 µM | 0.012 µM

From article doi:10.1101/2024.04.15.589676 (bioRxiv, 2024)
